According to patent US20260284009A1, “COMPOUNDS FOR NOS-RELATED CANCERS AND METHODS OF USE” (YISSUM RESEARCH DEVELOPMENT COMPANY OF THE HEBREW …, priority 2023, published 2026):

Columns and labels:
U87-MG cells [1] = test: Western blots of 3-Ntyr, CD-70, iNOS and nNOS in U87-MG cells; assay type: cell-based, human; settings: western blot, 100 μM 7-NI, 500 or 1000 μM L-NIL, n=3
Experimental: In FIGS. 12A-12D, for quantitative analysis data, all individual data series are presented as biological replicates (n=3) for all groups. Data are expressed as the mean±SEM.
FIG. 12A: Representative western blots of 3-Ntyr and β-actin levels in U87-MG cells following administration of the control, 0.1% DMSO (“Vehicle”), or 100 μM 7-NI (“7-NI”).
FIG. 12B: Quantitative analysis of 3-Ntyr levels for the experiments of FIG. 12A.
FIG. 12C: Representative western blots of 3-Ntyr and β-actin levels in U87-MG cells following administration of the control, 500 μM L-NIL (“L-NIL 500”), or 1000 μM L-NIL (“L-NIL 1000”).
FIG. 12D: Quantitative analysis of 3-Ntyr levels for the experiments of FIG. 12C.
In FIGS. 13A-13B, for quantitative analysis data, all individual data series are presented as biological replicates (n=3) for all groups. Data are expressed as the mean±SEM.
FIG. 13A: Representative western blots of CD-70 and β-actin levels in U87-MG cells following administration of the control, 0.1% DMSO (“Vehicle”), 100 μM 7-NI (“7-NI”), 500 μM L-NIL (“L-NIL 500”), or 1000 μM L-NIL (“L-NIL 1000”).
FIG. 13B: Quantitative analysis of CD-70 levels for the experiments of FIG. 13A.
In FIGS. 14A-14B, for quantitative analysis data, all individual data series are presented as biological replicates (n=3) for all groups. Data are expressed as the mean±SEM.
FIG. 14A: Representative western blots of iNOS and β-actin levels in U87-MG cells following administration of the control, 0.1% DMSO (“Vehicle”), 100 μM 7-NI (“7-NI”), 500 μM L-NIL (“L-NIL 500”), or 1000 μM L-NIL (“L-NIL 1000”).
FIG. 14B: Quantitative analysis of iNOS levels for the experiments of FIG. 14A.
In FIGS. 15A-15B, for quantitative analysis data, all individual data series are presented as biological replicates (n=3) for all groups. Data are expressed as the mean±SEM.
FIG. 15A: Representative western blots of nNOS and β-actin levels in U87-MG cells following administration of the control, 0.1% DMSO (“Vehicle”), 100 μM 7-NI (“7-NI”), 500 μM L-NIL (“L-NIL 500”), or 1000 μM L-NIL (“L-NIL 1000”).
FIG. 15B: Quantitative analysis of nNOS levels for the experiments of FIG. 15A.

U87-MG cells [2] = test: Clonogenic survival (colony) assay in U87-MG cells; assay type: cell-based, human
Experimental: (§1) Human glioblastoma U87-MG cells were obtained from the American Type Culture Collection (ATCC) and maintained in Dulbecco's modified Eagle's Medium (DMEM) and Ham's F-12 (1:1) supplemented with 10% fetal bovine serum, 2 mM L-glutamine, and 100 U/ml penicillin-G/[…] streptomycin in the humidified atmosphere (37° C., 5% CO2). Cells were plated onto 25 cm^2 and 75 cm^2 at a density of 7.0×10^5 and 2.1×10^6 cells/cm^2 respectively for Western blotting (WB) and 1×10^5 for immunofluorescence. The U87-MG cells were treated with 100 μM 7-nitroindazole (7-NI) for 24 hr.
Cells were seeded into 6-well plates at concentrations of 500/well or 1000/well in triplicates. After 24 hours, 7-NI was added, or cells were transiently transfected with siRNA-nNOS, as described above, before changing to serum-containing medium. […] Colonies were stained with crystal violet, washed with PBS, air-dried, and imaged. The colonies were visualized using ImageJ software. Cell colonies of greater than 50 cells were identified and counted.
(§2) In a particular example, in vitro and in vivo experiments were performed using U87-MG cells and U87-MG-xenografted mice, respectively, as a glioblastoma model.

U87-MG cells [3] = test: Nitrite (Griess) assay in U87-MG cells; assay type: cell-based, human
Experimental: as §1, §2

U87-MG cells [4] = test: Clonogenic survival of U87-MG cells; assay type: cell-based, human; settings: 100 μM 7-NI, 500 or 1000 μM L-NIL, combinations 100 μM 7-NI + 500 or 1000 μM L-NIL
Description: (§3) Data are presented as mean±SEM.
as §3

U87-MG-xenografted mice = test: Tumor volume and tumor mass in U87-MG-xenografted mice; assay type: in vivo; settings: for tumor volume in a subset of mice: subset (top 4-5, smallest tumor volume) of U87-MG-xenografted mice, 10 mg/kg L-NIL or both
Experimental: In FIGS. 16A-16B, data are expressed as the mean±SEM. Statistical significance was determined using a One-way ANOVA followed by Fisher's LSD multiple comparison post hoc test. **P<0.01, ***P<0.001, ****P<0.0001, and ns=not significant.
FIG. 16A: Temporal tumor volume comparison for U87-MG-xenografted mice receiving treatment with 0.1% DMSO (“vehicle”) (n=10), 80 mg/kg 7-NI (“7-NI”) (n=10), 10 mg/kg L-NIL (“L-NIL”) (n=10), or 80 mg/kg 7-NI and 10 mg/kg L-NIL concurrently administered (“Combo”) (n=15).
FIG. 16B: Quantitative analysis of tumor volume for U87-MG-xenografted mice after 8 days for the experiments of FIG. 16A.
In FIGS. 17A-17B, data are expressed as the mean±SEM. Statistical significance was determined using a One-way ANOVA followed by Fisher's LSD multiple comparison post hoc test. *P<0.05, ****P<0.0001, and ns=not significant.
FIG. 17B: Quantitative analysis of tumor volume after 8 days for the subset of U87-MG-xenografted mice for the experiments of FIG. 17A.
In FIGS. 18A-18B, data are expressed as the mean.
Data are expressed as the mean±SEM. Statistical significance was determined using a One-way ANOVA with Bonferroni's multiple comparisons tests. **P<0.01, ****P<0.0001, ns=not significant.
Data are expressed as the mean±SEM. Statistical significance was determined using a One-way ANOVA with Bonferroni's multiple comparisons tests. *P<0.05, **P<0.01, ***P<0.001, and ****P<0.0001.

[5] = U87-MG-xenografted mice, 80 mg/kg 7-NI, 10 mg/kg L-NIL or both concurrently, after 8 days, vs vehicle

| Structure (SMILES) | 3-Ntyr (nitrotyrosine) levels (U87-MG cells [1]) | cluster of differentiation 70 (CD-70) levels (U87-MG cells [1]) | inducible nitric oxide synthase (iNOS) levels (U87-MG cells [1]) | neuronal nitric oxide synthase (nNOS) levels (U87-MG cells [1]) | colony growth (U87-MG cells [2]; higher dose of L-NIL, both experiments, vs control) | colony growth (U87-MG cells [2]; lower dose of L-NIL, one experiment (FIG. 9), vs control) | colony growth (U87-MG cells [2]; lower dose of L-NIL, second experiment (FIGS. 8C-8D), reduced vs control) | nitrite and nitrate content (Griess assay) (U87-MG cells [3]; higher dose of L-NIL, one experiment (FIG. 10B), vs control) | nitrite and nitrate content (Griess assay) (U87-MG cells [3]; higher dose of L-NIL, second experiment (FIG. 11), reduced vs control) | nitrite and nitrate content (Griess assay) (U87-MG cells [3]; lower dose of L-NIL, one experiment (FIG. 11), vs control) | nitrite and nitrate content (Griess assay) (U87-MG cells [3]; lower dose of L-NIL, second experiment (FIG. 10B), reduced vs control) | clonogenic survival (U87-MG cells [4]) | tumor volume (U87-MG-xenografted mice; [5]) | tumor volume in a subset of mice (U87-MG-xenografted mice; 80 mg/kg 7-NI, after 8 days) | colony growth (U87-MG cells [2]; 7-NI, vs control and negative control (0.1% DMSO)) | nitrite and nitrate content (Griess assay) (U87-MG cells [3]; 7-NI) | tumor volume (U87-MG-xenografted mice; U87-MG-xenografted mice, 20, 40 or 80 mg/kg 7-NI intraperitoneal for 14 days, vs vehicle) | tumor mass (U87-MG-xenografted mice; U87-MG-xenografted mice, 20, 40 or 80 mg/kg 7-NI, after 14 days, vs vehicle) |
| --- | --- | --- | --- | --- | --- | --- | --- | --- | --- | --- | --- | --- | --- | --- | --- | --- | --- | --- |
| CC(=N)NCCCC[C@H](N)C(=O)O [L-NIL, N^6-(1-iminoethyl)-L-lysine] | did not result in a significant decrease | did not lead to significant changes | did not lead to significant changes | did not lead to significant changes | significant decrease | significantly reduced | not statistically significant | significantly reduced | not statistically significant | significantly reduced | not statistically significant | significant decrease | significantly smaller | significantly smaller | – | – | – | – |
| O=[N+]([O-])c1cccc2cn[nH]c12 [7-NI, 7-nitroindazole] | significant decrease | did not lead to significant changes | did not lead to significant changes | did not lead to significant changes | – | – | – | – | – | – | – | significant decrease | significantly smaller | significantly smaller | significantly impacted | dramatic reduction | significantly smaller | significantly smaller |
